Results reported in publication PMC8359310 (British Journal of Clinical Pharmacology, 2020).

Legend:
[1] = cited from earlier work
[2] = Clinical DDI study: plasma pharmacokinetics of probe drugs; conditions: for increase of AUCinf on coadministration of capmatinib / increase of AUClast on coadministration of capmatinib / increase of Cmax on coadministration of capmatinib: compared to probe drug alone; for AUC(0-inf) / AUC(0-t) / Cmax / half-life / Tmax: human, in vivo; for AUC(0-inf): AUCinf; for AUC(0-t): AUClast; for half-life: T1/2, geo‐mean (geo‐CV%); for Tmax: median (min, max); for AUCinf geo‐mean ratio (90% CI) / AUClast geo‐mean ratio (90% CI) / Cmax geo‐mean ratio (90% CI): probe drug + capmatinib vs probe drug alone
[3] = adjusted geo‐mean, probe drug + capmatinib, linear mixed effects model
[4] = adjusted geo‐mean, probe drug alone, linear mixed effects model
[5] = geo‐mean (geo‐CV%), probe drug + capmatinib 400 mg twice daily, Day 22, plasma
[6] = geo‐mean (geo‐CV%), probe drug alone, Day 1, plasma
[7] = probe drug + capmatinib 400 mg twice daily, Day 22

| increase of AUCinf on coadministration of capmatinib [2] [%] | increase of AUClast on coadministration of capmatinib [2] [%] | increase of Cmax on coadministration of capmatinib [2] [%] | AUC(0-inf) [2, 3] [ng·h/mL] | AUC(0-inf) [2, 4] [ng·h/mL] | AUC(0-t) [2, 3] [ng·h/mL] | AUC(0-t) [2, 4] [ng·h/mL] | AUC(0-t) [2, 5] [ng·h/mL] | AUC(0-t) [2, 6] [ng·h/mL] | Cmax [2, 4] [ng/mL] | Cmax [2, 6] [ng/mL] | half-life ([2]; probe drug alone, Day 1) [min] | Tmax ([2]; probe drug alone, Day 1) [h] | Structure (SMILES) | further results |
| --- | --- | --- | --- | --- | --- | --- | --- | --- | --- | --- | --- | --- | --- | --- |
| 47 | 63 | 74 | 32.9 | 22.4 | 23.8 | 14.6 | 23.8 | 14.6 | 1.12 | 1.12 | 2820 | 1.07 | C[C@H]1O[C@@H](O[C@H]2[C@@H](O)C[C@H](O[C@H]3[C@@H](O)C[C@H](O[C@H]4CC[C@@]5(C)[C@H](CC[C@@H]6[C@@H]5C[C@@H](O)[C@]5(C)[C@@H](C7=CC(=O)OC7)CC[C@]65O)C4)O[C@@H]3C)O[C@@H]2C)C[C@H](O)[C@@H]1O [digoxin] | T1/2 ([1]; healthy subjects with normal renal function): 1.5 to 2 days; time of peak serum concentrations ([1]; oral administration): 1 to 3 h; half-life [2, 7]: 3680 min |
| 108 | 103 | 204 | 156 | 75.2 | 144 | 71 | 144 | 71 | 7.72 | 7.72 | 1320 | 2.04 | CC(C)c1nc(N(C)S(C)(=O)=O)nc(-c2ccc(F)cc2)c1/C=C/[C@@H](O)C[C@@H](O)CC(=O)O [rosuvastatin] | Cmax [2, 3]: 23.5 ng/mL; Cmax [2, 5]: 23.5 ng/mL; Tmax [2, 7]: 1.55 h; AUCinf geo‐mean ratio (90% CI) [2]: 2.08 (1.56, 2.76); AUClast geo‐mean ratio (90% CI) [2]: 2.03 (1.61, 2.56); Cmax geo‐mean ratio (90% CI) [2]: 3.04 (2.36, 3.92); AUCinf geo‐mean ratio (90% CI) ([2]; listed as Rosuvastatin): 2.08 (1.56–2.76); AUClast geo‐mean ratio (90% CI) ([2]; listed as Rosuvastatin): 2.03 (1.61–2.56); Cmax geo‐mean ratio (90% CI) ([2]; listed as Rosuvastatin): 3.04 (2.36–3.92) |
